# Laboratory results as given in patent US8338473B2, “Derivatives of psammaplin A, a method for their synthesis and their uses for the prevention or treatment of cancer” (Centre National de la Recherche Scientifique, priority 2007, dated 2012).
# Tests used:
# [1] = system: histone H3; assay: Histone H3 acetylation and K9 H3 methylation levels in U937 cells; type: cell-based, human; settings: U937, 6 and 16 hrs
# Description: (§1) FIG. 1: a) Cell cycle analysis of U937 cells treated for 30 hrs with the indicated compounds used at 1 and 5 μM; b) Caspase 3 apoptotic assay of the indicated compounds after 24 hrs of treatment in the U937 cells; c) Tubulin acetylation and p21 expression levels at 6 and 16 hrs after treatment with the indicated compounds; total tubulin expression levels are used for equal loading; d) Histone H3 acetylation and K9 H3 methylation expression levels at 6 and 16 hrs after treatment with the indicated compounds; total tubulin expression levels are used for equal loading; e) K9, K14, K18 histone H3 acetylation expression levels at 6 and 16 hrs after treatment with the indicated compounds; total ERKs expression levels are used for equal loading; f) HDAC1 enzymatic assay: IP-HDAC1 is incubated with the indicated inhibitors for 24 Hrs; activity is measured as ^3H-acetyl release; g) HDAC4 enzymatic assay: IP-HDAC4 is incubated with the indicated inhibitors for 24 hrs; activity is measured as ^3H-acetyl release.
# (§2) For the determination of p21^WAF1/CIP1 and p16^INK4 100 μg of total protein extracts were separated on a 15% polyacrylammide gels and blotted. Western blots were shown for p21 (Transduction Laboratories, dilution 1:500), p16 (Santa Cruz) and total ERKs (Santa Cruz) were used to normalise for equal loading. For alpha-tubulin acetylation 25 μg of total protein extracts were separated on a 10% polyacrylamide gels and blotted. Western blots were shown for acetylated alpha-tubulin (Sigma, dilution 1:500) and total ERKs (Santa Cruz) or total tubulin (Sigma) were used to normalise for equal loading.
# [2] = system: p21WAF1/CIP1; assay: p21 expression, Western blot in U937 cells; type: cell-based, human; settings: U937, 6 and 16 hrs
# Description: as §1
# FIG. 3: a) Cell cycle and apoptosis analysis carried out in U937 cells after 24 hrs with the indicated compounds; values are media of independent triplicates; b) CD11c expression analysis carried out in U937 cells with the indicated compounds; values are media of independent duplicates; c) Tubuline acetylation and p21 expression levels in U937 cells after 24 hrs with the indicated treatments; total ERKs expression levels are used for equal loading; d) acetylation of histone H3 under the conditions indicated in (c).
# as §2, with “Western blots were shown for acetylated alpha-tubulin (Sigma, dilution 1:500) and total ERKs (Santa Cruz) or total tubulin (Sigma) were used to normalise for equal loading.” left out
# [3] = system: HCT-116 cells; assay: MTT cytotoxicity assay, HCT-116; settings: read-out: IC50 values, MTT cytotoxicity assay; HCT-116, 48 h
# Description: (§3) Plates were kept in the humidified CO2 (5%) incubator overnight so that cells get attached to the bottom. […] Viable cells cleave the MTT tetrazolium ring into a dark blue formazan reaction product, whereas dead cells remain colorless. The MTT-containing medium was gently removed and DMSO was added in each well. After shaking, the plates were read in absorbance at 540 nm. All results are expressed as the average of three wells. Percent cytotoxicity was measured of each compound and represented in terms of its IC50 values.
# [4] = target: human recombinant SIRT1 (Homo sapiens, UniProt Q96EB6); assay: SIRT activity assay, SIRT1; type: biochemical
# Description: FIG. 13A: % of SIRT1 and SIRT2 activity with controls, sodium suramine, a sirtuin inhibitor, and resveratrol a SIRT1 activator, and with UVI5008 at concentrations of 50 μM and 5 μM.
# The SIRT activity assay was performed using the human recombinant SIRT1 and SIRT2. SIRT1 (1 U/well) or SIRT2 (5 U/well), respectively, were incubated (37° C. for 1 h) with the SIRT1/2 substrate (corresponding to a p53 acetylated peptide) in the presence of NAD^+ and various concentrations of tested compounds (sirtuins activators or inhibitors). Activity was measured as fluorescence intensity. As internal controls, sodium suramin, a sirtuin inhibitor, and resveratrol, a SIRT1 activator, have been included. The fluorescence was measured on a fluorometric reader (Inphinite 200 TECAN) with excitation set at 360 nm and emission detection set at 460 nm
# [5] = system: A-375 cells; assay: MTT cytotoxicity assay, A-375; settings: read-out: IC50 values, MTT cytotoxicity assay; A-375, 48 h
# Description: as §3
# [6] = target: HDAC4 (Homo sapiens, UniProt P56524); assay: HDAC4 enzymatic assay (IP-HDAC4, 3H-acetyl release); type: biochemical; settings: IP-HDAC4 incubated with inhibitor 24 hrs
# Description: as §1
# [7] = target: HDAC1 (Homo sapiens, UniProt Q13547); assay: HDAC1 enzymatic assay (IP-HDAC1, 3H-acetyl release); type: biochemical; settings: IP-HDAC1 incubated with inhibitor 24 hrs
# Description: as §1
# [8] = system: RARβ2 promoter; assay: Methylation specific PCR for the RARβ gene; type: cell-based; settings: 16 and 24 hrs
# Description: FIG. 2: a) Methylation specific PCR for the RARβ gene after 16 and 24 hrs of treatment with the indicated compounds; b) Methylation specific PCR for the p16 gene after 24 hrs of the indicated treatments. Samples are representative of real duplicates; c) p16 expression levels in U937 cells after 24 hrs with the indicated treatments; d) DNMT enzymatic in vitro assay carried out with 1.5 and 50 μM of the indicated compounds;
# Cells were resuspended into 150 μl of TE (Tris 10 mM—EDTA 1 mM). 1.5 mL of lysis buffer (10 mM Tris pH 8.0—0.1 mM EDTA pH 8.0—0.5% SDS—20 μg/ml Rnase Dnase-free) were added, and after an incubation time of 1 h at 37° C., a second incubation at 56° C. with proteinase K at 100 μg/ml final concentration was performed over night. Proteins were removed by phenol-chloroform extraction. The genomic DNA was then precipitated with 0.2 vol. of 10M ammonium acetate and 2 vol. ethanol, and centrifuged at 13000 rpm for 5 min. The DNA pellet was washed with 70% ethanol, air dried and resuspended in nuclease free water at 4° C. on rocking table. The concentration was measured at 260 nm. […]
# 20 μg of genomic DNA (or in vitro methylated DNA) were mixed with 5.5 μl of 3M NaOH, the volume was adjusted to 55.5 μl with filtered water. […] The PCR product (10 μl+5 μl loading dye) was analyzed on 1.5% agarose gel.
# Sequence of HDAC4 (P56524 whole entry, species assumed): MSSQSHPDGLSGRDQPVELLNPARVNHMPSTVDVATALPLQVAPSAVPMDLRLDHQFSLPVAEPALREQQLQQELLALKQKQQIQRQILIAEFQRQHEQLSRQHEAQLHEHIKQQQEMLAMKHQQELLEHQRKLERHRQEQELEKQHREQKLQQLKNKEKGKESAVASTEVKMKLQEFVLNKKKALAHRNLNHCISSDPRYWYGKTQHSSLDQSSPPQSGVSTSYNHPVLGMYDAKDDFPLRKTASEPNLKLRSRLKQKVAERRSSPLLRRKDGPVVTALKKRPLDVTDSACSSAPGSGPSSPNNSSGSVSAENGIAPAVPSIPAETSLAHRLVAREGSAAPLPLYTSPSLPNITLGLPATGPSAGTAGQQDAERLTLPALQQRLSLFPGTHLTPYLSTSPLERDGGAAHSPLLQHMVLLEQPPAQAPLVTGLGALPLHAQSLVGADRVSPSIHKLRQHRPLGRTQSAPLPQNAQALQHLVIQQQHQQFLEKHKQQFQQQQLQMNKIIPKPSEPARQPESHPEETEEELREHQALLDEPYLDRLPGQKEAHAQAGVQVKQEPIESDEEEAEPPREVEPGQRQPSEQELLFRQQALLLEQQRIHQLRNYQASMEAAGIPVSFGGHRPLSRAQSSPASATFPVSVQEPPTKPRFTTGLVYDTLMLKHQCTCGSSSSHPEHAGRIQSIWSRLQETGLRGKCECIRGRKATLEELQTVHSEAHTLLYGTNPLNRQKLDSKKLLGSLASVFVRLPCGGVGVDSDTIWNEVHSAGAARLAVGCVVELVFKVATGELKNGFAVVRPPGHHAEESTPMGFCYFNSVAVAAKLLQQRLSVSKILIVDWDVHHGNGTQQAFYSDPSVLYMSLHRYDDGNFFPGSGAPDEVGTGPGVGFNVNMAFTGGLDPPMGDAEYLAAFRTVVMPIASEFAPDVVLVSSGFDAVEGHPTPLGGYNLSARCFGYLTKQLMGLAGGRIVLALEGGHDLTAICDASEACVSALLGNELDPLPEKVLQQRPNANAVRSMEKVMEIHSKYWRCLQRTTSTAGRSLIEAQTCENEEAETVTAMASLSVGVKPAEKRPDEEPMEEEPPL
# Sequence of HDAC4 (O15379 whole entry partner, species assumed): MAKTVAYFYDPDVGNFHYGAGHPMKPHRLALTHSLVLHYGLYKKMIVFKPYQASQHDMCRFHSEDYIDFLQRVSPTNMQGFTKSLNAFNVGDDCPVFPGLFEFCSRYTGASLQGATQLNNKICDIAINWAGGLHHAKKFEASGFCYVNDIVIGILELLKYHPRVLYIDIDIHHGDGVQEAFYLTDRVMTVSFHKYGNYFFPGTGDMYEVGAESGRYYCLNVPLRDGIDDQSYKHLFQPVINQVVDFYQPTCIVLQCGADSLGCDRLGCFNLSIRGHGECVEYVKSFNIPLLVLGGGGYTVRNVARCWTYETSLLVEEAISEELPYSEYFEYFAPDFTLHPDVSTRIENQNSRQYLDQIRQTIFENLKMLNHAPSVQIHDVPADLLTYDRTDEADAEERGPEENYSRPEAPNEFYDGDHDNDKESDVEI
# Sequence of human recombinant SIRT1 (Q96EB6 whole entry): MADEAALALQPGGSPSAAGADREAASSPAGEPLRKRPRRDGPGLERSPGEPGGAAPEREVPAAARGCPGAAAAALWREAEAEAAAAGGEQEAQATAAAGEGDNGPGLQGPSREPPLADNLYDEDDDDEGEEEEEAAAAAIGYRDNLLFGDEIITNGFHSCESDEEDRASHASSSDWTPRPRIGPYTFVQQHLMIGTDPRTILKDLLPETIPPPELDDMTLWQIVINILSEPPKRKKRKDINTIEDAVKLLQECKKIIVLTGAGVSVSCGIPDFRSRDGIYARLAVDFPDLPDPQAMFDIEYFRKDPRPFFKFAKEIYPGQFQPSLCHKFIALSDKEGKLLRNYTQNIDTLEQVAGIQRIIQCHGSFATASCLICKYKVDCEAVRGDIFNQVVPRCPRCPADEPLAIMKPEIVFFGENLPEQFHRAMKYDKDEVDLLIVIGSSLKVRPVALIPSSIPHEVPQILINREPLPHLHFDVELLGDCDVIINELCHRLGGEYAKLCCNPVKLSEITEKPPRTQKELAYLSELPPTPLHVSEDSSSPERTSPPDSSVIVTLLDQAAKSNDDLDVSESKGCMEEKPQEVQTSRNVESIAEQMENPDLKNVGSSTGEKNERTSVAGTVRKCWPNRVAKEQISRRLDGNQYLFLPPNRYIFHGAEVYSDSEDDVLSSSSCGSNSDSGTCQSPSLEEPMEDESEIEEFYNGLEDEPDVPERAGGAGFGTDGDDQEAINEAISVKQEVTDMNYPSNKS
# Sequence of HDAC1 (Q13547 whole entry, species assumed): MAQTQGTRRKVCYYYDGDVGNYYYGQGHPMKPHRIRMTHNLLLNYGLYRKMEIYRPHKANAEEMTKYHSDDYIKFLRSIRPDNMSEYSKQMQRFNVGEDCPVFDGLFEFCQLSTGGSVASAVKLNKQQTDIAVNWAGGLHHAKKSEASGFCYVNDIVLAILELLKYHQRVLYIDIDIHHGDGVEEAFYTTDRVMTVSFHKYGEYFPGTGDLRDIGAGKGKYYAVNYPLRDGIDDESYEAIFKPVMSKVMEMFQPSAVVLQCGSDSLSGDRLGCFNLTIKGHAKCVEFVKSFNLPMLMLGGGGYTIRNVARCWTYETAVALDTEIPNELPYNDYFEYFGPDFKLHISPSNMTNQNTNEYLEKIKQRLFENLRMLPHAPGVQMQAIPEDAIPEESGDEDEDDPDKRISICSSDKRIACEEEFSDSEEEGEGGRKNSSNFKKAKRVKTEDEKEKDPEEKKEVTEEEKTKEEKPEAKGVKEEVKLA
compound,measurement,setting,value
O=C(NCCSSCCNC(=O)C(Cc1c[nH]c2ccc(Br)cc12)=NO)C(Cc1c[nH]c2ccc(Br)cc12)=NO [UVI5008],"H3K9, H3K14 and H3K18 acetylations",[1],all increased
same,global histone H3 acetylation,[1],dramatically enhanced
same,methylation of H3K9,[1],decreased
same,expression of p21WAF1/CIP1,[2],dramatically increased
same,IC50,[3],1.8 ± 0.1 µM
same,IC50,[4],8.9 µM
same,IC50,[5],3.1 ± 0.5 µM
same,HDAC4 deacetylase activity inhibition,[6],nearly completely blocked
same,HDAC1 inhibition,[7],blocks HDAC1 activity nearly quantitatively
same,unmethylated RARβ2 (MSP),[8],significant increase
